Consider one sequence from patent US20060275285A1, “Methods of inhibiting a GPCR” (Amgen Inc., priority 2005, published 2006).

In one data set the test system is GPR23. In words: GPR23-specific antisense oligos evaluated for activity in bEND cells. It is filed as cell-based. Conditions: bEND (murine brain endothelial) cells. As to the method:
GPR23-specific antisense oligos were generated by Isis Pharmaceuticals (Carlsbad, Calif.) and were evaluated for activity in bEND (murine brain endothelial) cells. […] An oligo without homology to any known gene was provided as a control ([…] (SEQ ID NO:10)). For the studies, male C57 black 6 mice were fed a high fat diet for 12 weeks (from 3 weeks of age) and analyzed for parameters of diet induced obesity. Animals that show appropriate symptoms of diet induced obesity (e.g., hyperinsulemia and weight gain with no signs of illness) were divided into 5 groups (10 animals/group) and treated as described below: […]

The subject of another data set is GPR23 mRNA. In words: GPR23 mRNA quantitation by real time PCR in white adipose tissue of diet induced obese mice. It is filed as in vivo. As to conditions: Groups 3 and 4 (25 and 50 mg/kg IP weekly for 7 weeks) vs Group 2. As to the method:
(§1) GPR23-specific antisense oligos were generated by Isis Pharmaceuticals (Carlsbad, Calif.) and were evaluated for activity in bEND (murine brain endothelial) cells. […] An oligo without homology to any known gene was provided as a control ([…] (SEQ ID NO:10)). For the studies, male C57 black 6 mice were fed a high fat diet for 12 weeks (from 3 weeks of age) and analyzed for parameters of diet induced obesity. Animals that show appropriate symptoms of diet induced obesity (e.g., hyperinsulemia and weight gain with no signs of illness) were divided into 5 groups (10 animals/group) and treated as described below:
(§2) Group 1 (saline treated control): saline IP injection weekly for 7 weeks;
(§3) Group 2 (universal oligo control): oligo IP injection 50 mg/kg body weight, weekly for 7 weeks;
(§4) Group 3 (GPR23 antisense oligo (ASO) treated): oligo IP injection, 25 mg/kg body weight, weekly for 7 weeks;
(§5) Group 4 (GPR23 ASO treated): oligo IP injection, 50 mg/kg body weight, weekly for 7 weeks; and
(§6) Group 5: (rosiglitizone treated control): 50 mg/kg body weight for 7 weeks.
Fed glucose measurements were made at the beginning, midpoint and endpoint of the study. […] At the end of the study, animals were sacrificed and tissue samples (liver, white adipose tissue, brown adipose tissue) were taken for histological evaluation and GPR23 mRNA quantitation. […]
(In general: Quantitative PCR measures a nucleic acid by following its amplification.)

The test system of data set [1] is male C57 black 6 mice fed a high fat diet (diet induced obesity). In words: GPR23 antisense study in diet induced obesity mice (body composition, serum parameters, liver). It is filed as in vivo. As to conditions: for body weight: 50 mg/kg IP weekly for 7 weeks (Group 4) vs control animals. As for the experimental part:
as §1, §2, §3, §4, §5, §6
(§7) Fed glucose measurements were made at the beginning, midpoint and endpoint of the study. A fasting GTT measurement was done at the midpoint and endpoint of the study. Fed plasma samples were tested for insulin, total cholesterol, free fatty acids, triglycerides, and liver enzymes. At the end of the study, animals were sacrificed and tissue samples (liver, white adipose tissue, brown adipose tissue) were taken for histological evaluation and GPR23 mRNA quantitation.

For another data set, the system named is fatty acid synthase mRNA. In words: Gene profiling by real time PCR of adipose tissue: fatty acid synthase. It is filed as in vivo, mice. As to conditions: white adipose tissue; Groups 3 and 4 (25 and 50 mg/kg). As to the method:
as §7
(§8) Gene profiling experiments were performed to provide additional insight into the mechanism of action associated with GPR23.

The next data set deals with hormone sensitive lipase. Description: Gene profiling by real time PCR of adipose tissue: hormone sensitive lipase. As to conditions: Groups 3 and 4 (25 and 50 mg/kg). The class given is in vivo, mice. As to the method: as §7, §8
The next data set relates to PPAR-gamma. Description: Gene profiling by real time PCR of adipose tissue: PPAR-gamma. Conditions: Groups 3 and 4 (25 and 50 mg/kg). The class given is in vivo, mice. As to the method: as §7, §8
[2] abbreviates: 50 mg/kg IP weekly for 7 weeks (Group 4) vs control oligo (Group 2).
[3] abbreviates: Groups 3 and 4 (25 and 50 mg/kg), not statistically significant, data not shown.

“CTCAGTATCATTAGCTTCAA (listed as DNA, chemistry not given here; listed as Mus musculus) [GPR23 antisense oligo]”: in the data set with GPR23, the “expression of GPR23 in cultured cells” value is listed as “markedly reduced”. The “reduction of GPR23 mRNA levels relative to control oligo treated animals” value in the data set on GPR23 mRNA is approximately 70%. In addition, the body weight result in data set [1] is given as “weighed slightly less than control animals”. Also, the body weight entry in data set [1] (listed as antisense oligo) was “weighed less than control animals”. Further, in data set [1] (setting [2]), the fat mass result is given as “statistically significant decrease” and the lean mass result was “statistically significant increase”. Moreover, the liver fat scores entry in data set [1] (Groups 3 and 4 (25 and 50 mg/kg)) is on record as “lower”. The “liver enzymes (a parameter of toxicity)” value in data set [1] (Groups 3 and 4 (25 and 50 mg/kg) compared to control groups (Groups 1 and 2)) is recorded as “not significantly different”. Moreover, in data set [1] (setting [3]), the “free fatty acid levels” value is “lower” and the triglyceride levels result is on record as “lower”. Besides, the serum cholesterol levels entry in data set [1] (both 25 mg/kg and 50 mg/kg doses (Groups 3 and 4), change from baseline at week 7, relative to controls) is recorded as “lowered relative to controls”. In addition, the glucose tolerance tests entry in data set [1] (fasting GTT, antisense oligo treatment) is reported as “not affected”. The “fatty acid synthase mRNA levels” value in the data set on fatty acid synthase mRNA is listed as “significantly reduced in a dose-dependent manner”. For the same sequence, the “levels of hormone sensitive lipase” value in the data set with hormone sensitive lipase is “did not change significantly”. The “levels of PPAR-gamma” value with PPAR-gamma is listed as “did not change significantly”.
